The source of these data is patent US9701667B2, “Coumarin-based fluorogenic agents and uses thereof for specific protein labelling” (UNIVERSITY OF OTTAWA, priority 2014, dated 2017).

Series [1] relates to MBP-dC10α. Kind of series: Fluorescence properties and fluorescence enhancement (FE) before/after labelling of model target protein. The series is classed as biochemical. As for the experimental part:
For experiments described herein, maltose-binding protein (MBP) was chosen as a highly-soluble test protein and the dC10α tag was fused to its C-terminus (MBP-dC10α) as described previously (Guy, J. et al., Mol. Biosyst. 2010, 6, 976-987).
Emission spectra and fluorescence intensity measurements were recorded at 37° C. with a Synergy H4 Hybrid Multi-Mode Microplate Reader with excitation and emission monochromators set at 9 nm bandpass. The mixture of 100 μM solution of fluorogen (YCx) and 100 μM MBP-dC10 in 50 mM HEPES buffer (pH 7.4) with 5% DMSO was incubated at 37° C. in the dark for 12 hours, after which the fluorescence emission spectrum of a dilution (25 μM final) in 50 mM HEPES buffer with 5% DMSO was recorded. The emission spectra of the corresponding labelling reagent in same solution without MBP-dC10α were also recorded. The ratio of fluorescence intensity at maximum emission gave the fluorescence enhancement (FE) ratio.

Series [2] deals with MBP-dC10α. The series can be described thus: Time-dependent fluorescence increase on reaction with test protein. The series is classed as biochemical. As to conditions: MBP-dC10 versus GSH. Here is the method: (§1) Reactivity was tested through the time-dependent fluorescence increase at 37° C. using Synergy H4 Hybrid Multi-Mode Microplate Reader with excitation and emission monochromators set to 9 nm bandpass. All reactions were prepared in 50 mM HEPES buffer (pH 7.4) with 5% DMSO. Solutions of MBP-dC10α or GSH were prepared in 96-well plates and labelling reagent (YCx) in DMSO was added immediately before recording. The final concentration of labelling reagent was 25 μM, the final concentration of MBP-dC10α was 25 μM and the final concentration of GSH was 50 μM or 1 mM in 50 mM HEPES buffer (pH 7.4) with 5% DMSO. Samples were excited at 440 nm and fluorescence intensity was followed at 485 nm as a function of time.

Series [3] can be described thus: Time-dependent fluorescence increase on reaction with GSH. As to conditions: 25 μM fluorogen, 1 mM GSH. As for the experimental part: as §1
The next series concerns HEK293T cells. The series can be described thus: MTT cytotoxicity assay. The series is classed as cell-based, human. As to conditions: 20 h incubation. As for the experimental part: 3-(4,5-Dimethylthiazol-2-yl)-2,5-diphenyl tetrazolium bromide (MTT) is a yellow tetrazolium salt and can be reduced to formazan crystals, which are insoluble in aqueous solutions, by active mitochondria in living cells. The resulting intracellular purple formazan can be dissolved in Triton X100, and therefore quantified by measuring absorption of the solution.
Cells were seeded in a 96-well plate and incubated with 100 μL of culture medium with different amounts of the fluorogen YCx for 16 h. No fluorogen was added to the positive control and no cells were plated in the negative control. Portions of 25 μL of MTT solution (5 mg in 1 mL of Hanks' balanced salt solution) were added to the wells and the cells were further incubated at 37° C. for 4 h. Solubilization solutions (100 μL) were then added and incubated in 96-well plates at room temperature in the dark overnight. The absorption of each well was measured using a plate reader at a wavelength of 570 nm with 690 nm as a reference. Cell viability was calculated according to the following equation: Cell viability=(Awith fluorogen−Anegative control)/(Apositive control−Anegative control).

Another series deals with T1, dC10α-actin (Homo sapiens, UniProt P60709).
T1 construct: expressed in transfected cells; host or cells: HEK 293T
The series can be described thus: No-wash intracellular labelling of dC10α-actin in HEK 293T cells. The series is classed as cell-based. As to conditions: 10 μM YC20, 45 min. Here is the method: (§2) The no-wash fluorogenic labelling reagent YC20 was used to label cellular proteins localized in different parts of living HEK 293T cells. Histone-H2B, localized in the nuclei, and actin, localized as filaments in the cytosol, were chosen as the test proteins. […] HEK293T cells were transfected to express histone H2B-dC10α or dC10α-actin and then labeled with YC20 for 45 min and directly imaged by fluorescent microscopy without any washing steps (FIG. 13; see, also, Chen, Y. et al., Angew. Chem. Int. Ed. Engl., 2014, 53, 13785-13788, the entire contents of which are hereby incorporated by reference).
(§3) Transfection and labelling were performed as follows: HEK 293T cells were plated into 60-mm dishes and grown in MEM supplemented with 10% FBS, 100 units/mL of penicillin and 100 μg/mL of streptomycin for 16 h before transfection. Cells were transiently transfected with plasmid DNA encoding for dC10α-actin or histone H2B-dC10α or with pcDNA3.1 (mock) using lipofectamine 2000 following manufacturer's instructions. Twenty-four or forty-eight hours after transfection, the cells were incubated with 10 μM YC20 (in Opti-MEM with 0.2% DMSO) for 45 min at 37° C. Cells were observed and imaged on a Nikon confocal microscope with a 25× objective. Images were taken and analyzed with NIS-Elements software.

For series [4], the system named is histone H2B-dC10α. Kind of series: No-wash intracellular labelling of histone H2B-dC10α in HEK 293T cells. The series is classed as cell-based, human. The following applies: 10 μM YC20, 45 min. Here is the method: as §2, §3
Series [5] relates to histone H2B-dC10α. Kind of series: Intracellular labelling of histone H2B-dC10α in HeLa cells. The following applies: 10 μM YC20, 10 minutes. The series is classed as cell-based, human. Here is the method:
HeLa cells were transfected with plasmid DNA encoding histone H2B-dC10α as described below and labelled with 10 μM YC20 for 10 minutes.
Transfection and labelling were performed as follows: HeLa cells were propagated for 2-3 weeks until the cells were stable and healthy for the transfection and labelling experiments. Cells were plated in 35 mm culture dishes (approx. 1.3×10^5 cells/plate in 2 mL of MEM or DMEM media) and incubated at 37° C. (5% CO2) for 12-16 h, after which they were transfected with the plasmid DNA encoding for the expression of histone H2B C-terminally tagged with dC10α, using 3-fold lipofectamine […] (H2B-dC10α and 6 μg of lipofectamine). For the transfections the media was changed from MEM/DMEM to OPTI-MEM and the transfection time was 45 min. The media was then changed back to MEM/DMEM and the cells were allowed to express protein for 48 h (37° C. and 5% CO2), after which the cells were treated with the corresponding fluorogen. For FlARe labelling, cells were treated with 10 μM of YC20 in 2 mL OPTI-MEM (containing 0.02% F127 and 0.2% DMSO) and incubated at 37° C. and 5% CO2 for 10 minutes.

Entries after “also recorded” stand apart in the source; their conditions may differ.

For `CCN(CC)c1ccc2cc(C(=O)Nc3cc(N4C(=O)C=C(OC)C4=O)cc(N4C(=O)C=C(OC)C4=O)c3)c(=O)oc2c1` [YC20, N-(3,5-bis(3-methoxy-2,5-dioxo-2,5-dihydro-1H-pyrrol-1-yl)phenyl)-7-(diethylamino)-2-oxo-2H-chromene-3-carboxamide], the “fluorescence intensity change (fluorescence enhancement)” value with MBP-dC10α [1] (after labelling with MBP-dC10, λex = 440 nm) turned out to be 29 fold. The “fluorescence after the labelling reaction” value in the series with MBP-dC10α [1] (after reaction with MBP-dC10α) is listed as “strong fluorescence”. Further, in the series with MBP-dC10α [1] (fluorogen without target protein), the “background (intrinsic) fluorescence before labelling / quenching” value is “negligible background fluorescence”. For the same molecule, in the series with MBP-dC10α [2], the “selectivity of labelling target protein over GSH” value is on record as “most selective labelling reagent”. The “reaction with high concentration (large excess) of GSH” value in series [3] was “extremely slow; also recorded: did not give any fluorescence signal”. Besides, in the series on HEK293T cells, the “cytotoxicity (cell viability, MTT)” value is reported as “neither showed any cytotoxicity up to 100 μM”. Besides, on dC10α-actin (HEK 293T mock cells), the “fluorescence in pcDNA transfected (mock) cells” value is recorded as “negligible fluorescence”. Moreover, the “labelling of dC10α-actin (cyan channel)” value at dC10α-actin (HEK 293T) is listed as “filament structures in the cytosol were clearly visible”. In addition, the entries for the “labelling of histone H2B-dC10α (cyan channel)” value in the series on histone H2B-dC10α [4] and in the series with histone H2B-dC10α [5] were “only the nuclei were fluorescently labeled” and “nuclei were strongly fluorescently labeled”, respectively.
